Measured values as given in the supplement of paper PMC10307832.

Key:
Assay in all cases: relative viability (nuclei count vs DMSO), 5 days (fraction); higher = more cells survive
[1] = compound: COc1cc(N2CCC(N3CCN(C)CC3)CC2)ccc1Nc1ncc(Cl)c(Nc2ccccc2S(=O)(=O)C(C)C)n1 [NVP-TAE684] + C[C@]1(O)C[C@@H](c2nc(-c3ccc4ccc(-c5ccccc5)nc4c3)c3c(N)nccn32)C1 [Linsitinib] (partner 1 µM)
Summary of the method: (§1)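 For relative viability, nuclei counts in treated wells were divided by those in vehicle wells. Lung cancer cell lines had been pin-tool dosed in 1536-well plates the day after seeding and cultured for 5 days, then fixed and stained in one step (final 0.05% Triton X-100, 1% formaldehyde, 1 ug/ml Hoechst) and imaged at 4×. Doses were one drug alone or a fixed anchor-drug dose plus five library-drug doses (not always all listed) in √10 steps, and values are duplicate-plate medians.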

[2] = compound: C#Cc1cccc(Nc2ncnc3cc(OC)c(OCCCCCCC(=O)NO)cc23)c1 [CUDC-101] + COc1cccc2cc(-c3nc([C@H]4CC[C@H](C(=O)O)CC4)n4ncnc(N)c34)[nH]c12 [OSI-027] (partner 0.5 µM)
Summary of the method: as §1

[3] = compound: COc1cc2/c(=N/c3ccc(Br)cc3F)nc[nH]c2cc1OCC1CCN(C)CC1 [Vandetanib] + Nc1ncn([C@H]2C[C@H](O)[C@@H](CO)O2)c(=O)n1 [Decitabine] (partner 2 µM)
Summary of the method: as §1

[4] = compound: C1=CC=C2C(=C1)N=C(S2)C(C#N)C3=NC(=NC=C3)NCCC4=CN=CC=C4 + Cc1nc(Nc2ncc(C(=O)Nc3c(C)cccc3Cl)s2)cc(N2CCN(CCO)CC2)n1 [Dasatinib] (partner 0.075 µM)
Summary of the method: as §1

Cell Line	relative viability ([1]; first compound 0.2 µM)	relative viability ([1]; first compound 0.6325 µM)	relative viability ([1]; first compound 2 µM)	relative viability ([2]; first compound 0.01 µM)	relative viability ([2]; first compound 0.03162 µM)	relative viability ([2]; first compound 0.1 µM)	relative viability ([2]; first compound 0.3162 µM)	relative viability ([2]; first compound 1 µM)	relative viability ([3]; first compound 0.02 µM)	relative viability ([3]; first compound 0.06325 µM)	relative viability ([3]; first compound 0.2 µM)	relative viability ([3]; first compound 0.6325 µM)	relative viability ([3]; first compound 2 µM)	relative viability ([4]; first compound 0.005 µM)	relative viability ([4]; first compound 0.01581 µM)	relative viability ([4]; first compound 0.05 µM)	relative viability ([4]; first compound 0.1581 µM)	relative viability ([4]; first compound 0.5 µM)
SK-LU-1	1.19	1.2	0.693	0.356	0.332	0.431	0.402	0.325	0.605	0.562	0.658	0.612	0.654	0.174	0.184	0.189	0.188	0.199
LCLC-97TM1	0.136	0.189	0.136	0.635	0.571	0.445	0.548	0.273	0.223	0.22	0.209	0.264	0.234	0.735	0.923	1.03	0.99	0.792
NCI-H1915	1.16	1.18	1.01	0.627	0.597	0.591	0.551	0.404	0.245	0.255	0.274	0.263	0.248	0.36	0.294	0.28	0.335	0.357
NCI-H358	0.73	0.488	0.274	0.834	0.893	0.909	0.884	0.315	0.181	0.203	0.208	0.232	0.19	0.177	0.155	0.162	0.178	0.245
LK-2	0.708	0.659	0.623	0.217	0.212	0.201	0.203	0.15	0.307	0.293	0.317	0.315	0.271	0.393	0.264	0.243	0.26	0.311
EPLC-272H	1.08		1.3	0.266	0.317	0.238	0.244	0.187	0.381	0.35	0.343	0.364	0.314	0.283	0.304	0.264	0.374	0.312
A-427	1.22		1.07	0.464	0.486	0.351	0.473	0.308	0.58	0.59	0.541	0.517	0.574	0.66	0.743	0.764	0.688	0.822
NCI-H1755	1.05	1.05		0.624	0.729	0.794	0.781	0.571	0.71	0.678	0.709	0.763	0.623	0.365	0.397	0.404	0.456	0.384
NCI-H838	1.22	0.955	0.372	0.411	0.354	0.431	0.523	0.391	0.489	0.399	0.503	0.457	0.451	0.204	0.28	0.325	0.264	0.262
